According to patent publication US20250368651A1 (priority 2022, published 2025):
Read-outs that look alike come from different tables or passages of the source.

Legend:
[1] = test system: SMN2 exon 7 splicing; experiment: Cell-based SMN2 splicing assay in 293T cells (minigene); parameters: species or system human; conditions: for EC50: Homo sapiens, HEK-293T; for splicing modulation in cells: cellular SMN2 splicing assays
[2] = molecular target: DNA Seq6 (UGAAGGAAGGU as deoxyribonucleotides); experiment: FP binding assay, DNA Seq6; conditions: footnote c: FP assay for DNA Seq6; range = 95% CI; read-out: Kd
Method: (§1) All synthetic DNA and RNA oligomers were purchased from Integrated DNA Technologies and reconstituted in nuclease-free water (Invitrogen #AM9932) at 1 mM. The concentration of the oligonucleotides at ˜0.1 mM was calibrated with the A260 value measured by a NanoDrop ND-1000 (Thermo, Waltham, MA, USA) and the predicted extinction coefficient (http://www.oligoevaluator.com) using Lamber-Beer's Law. The risdiplam analogues (1 mM in DMSO) were diluted in 2× assay buffer (40 mM HEPES, 200 mM NaCl for RNA; 40 mM HEPES, 200 mM NaCl, 1 mM MgCl2 for DNA) to make a 1 μM 2× working solution.
(§2) A 1:2 dilution series (8 points) of each oligonucleotide was prepared in 20-30 μL water to desired concentrations (i.e., 1-128 μM). 20-30 μL 2× working solution containing the 2× assay buffer and the small-molecule ligand was added to each oligonucleotide sample in 1:1 (v/v) and mixed by pipetting for 4 times. For fluorescence polarization measurement, 20 μL of the above 1× working solution was transferred into a 384-well, black, F-bottom microplates (Greiner Bio-One) in duplicates or triplicates. The plate was equilibrated at room temperature for 5 min before being read using a microplate reader (SYNERGY H1, BioTek; Excitation/Emission=360/460 nm) at 25° C. For compound SMN-C5, a competitive binding assay was employed to measure an apparent Kd. SMN-C5 was 1:2 serial diluted for 10 concentration points starting at 750 μM in DMSO. A mixture of SMN-C2 (0.5 μM) and DNA Seq6 (25 μM) in 1× assay buffer was prepared and incubated at room temperature for 10 minutes. 3 μL of SMN-C5 solution at each concentration was added to a 42 μL SMN-C2/DNA Seq6 mixture and incubated at room temperature for 10 minutes. The mixture was then transferred into a microplate (20 μL each well) in duplicates for fluorescence polarization readout. The experimental data were analyzed using Prism 8 software (Graphpad Software, San Diego, CA, USA).

[3] = test system: gene splicing; conditions: cited from earlier work
[4] = in vitro; conditions: human
[5] = in vitro; conditions: human; remark: listed apart in the source
[6] = in vitro; conditions: human; remark: listed apart in the source
[7] = molecular target: COVID RNA (SARS-CoV-2 RNA SL5 per FIG. 8); experiment: FP binding, Kd for COVID RNA
[8] = molecular target: RNA Seq4 […]; experiment: FP binding assay, RNA Seq4
Method: as §1, §2

[9] = test system: RNA Seq6 UGAAGGAAGGU; experiment: Fluorescence polarization (FP) binding assay, RNA Seq6
Method: as §1, §2

[10] = Table 3, read-out: SMN2 Splicing EC50
[11] = cell-based SMN2 splicing assay in 293T cells, read-out: SMN2 EC50

SMILES	EC50 [1, 10] [µM]	Kd [2] [µM]	EC50 [1, 11] [µM]	CC50 [6] [µM]	other results
Cc1cn2cc(-c3c(Br)c4ccc(N5CCN[C@@H](C)C5)cc4oc3=O)nc2c(C)n1 [Compound C13, (S)-4-bromo-3-(6,8-dimethylimidazo[1,2-a]pyrazin-2-yl)-7-(3-methylpiperazin-1-yl)-2H-chromen-2-one]	0.45 ± 0.18	–	–	–	–
CN1CCN(c2ccc3cc(-c4ccccc4Cl)c(=O)oc3c2)CC1 [Compound C18, 3-(2-chlorophenyl)-7-(4-methylpiperazin-1-yl)-2H-chromen-2-one]	> 8	> 100	> 8	–	–
CC1(C)CC(Oc2ccc(-c3ccc(-c4cn[nH]c4)cc3O)nn2)CC(C)(C)N1 [branaplam]	–	–	–	–	number of genes whose splicing is significantly affected [3]: 36 genes
CN1CCN(c2ccc3cc(-c4ccc(Cl)cc4)c(=O)oc3c2)CC1 [Compound C20, 3-(4-chlorophenyl)-7-(4-methylpiperazin-1-yl)-2H-chromen-2-one]	> 8	8.2 ± 0.7	> 8	–	splicing modulation in cells [1]: without showing any observable splicing modulation
Cc1c(-c2cccc(Cl)c2)c(=O)oc2cc(N3CCN(C)CC3)ccc12 [Compound C22, 3-(3-chlorophenyl)-4-methyl-7-(4-methylpiperazin-1-yl)-2H-chromen-2-one]	> 8	> 100	> 8	> 30	CC50 [4]: > 30 µM; CC50 [5]: > 30 µM
Cc1cn2cc(-c3cc4ccc(N5CCN(CCNC(=O)OC(C)(C)C)[C@@H](C)C5)cc4oc3=O)nc2c(C)n1 [Compound C6, (S)-tert-butyl(2-(4-(3-(6,8-dimethylimidazo[1,2-a]pyrazin-2-yl)-2-oxo-2H-chromen-7-yl)-2-methylpiperazin-1-yl)ethyl)carbamate]	–	4 ± 0.3	> 8	–	Kd ([7]; Table 3): 3 ± 0.4 µM; Kd ([7]; Table 4): 3.03 ± 0.4 µM; Kd [8]: 37.5 ± 14 µM; splicing modulation in cells [1]: without showing any observable splicing modulation; reduction of binding to RNA Seq6 by the Boc group ([9]; Table 1 RNA Seq6 (SMN-C2) vs Table 2 entry 6): ~3 fold; Kd ([9]; footnote d: FP assay for RNA Seq6, read-out: Kd): 51.2 ± 4.9 µM
COc1ccc2nc(-c3cc4ccc(N5CCNCC5)cc4oc3=O)cn2c1 [Compound C35, 3-(6-methoxyimidazo[1,2-a]pyridin-2-yl)-7-(piperazin-1-yl)-2H-chromen-2-one]	–	–	–	3	–
CC(=O)N1CCN(c2ccc3cc(-c4cn5cc(C)nc(C)c5n4)c(=O)oc3c2)C[C@@H]1C [Compound C8, (S)-7-(4-acetyl-3-methylpiperazin-1-yl)-3-(6,8-dimethylimidazo[1,2-a]pyrazin-2-yl)-2H-chromen-2-one]	> 8	–	–	–	–
O=c1oc2cc(N3CCNCC3)ccc2cc1-c1cn2cc(F)ccc2n1 [Compound C31, 3-(6-fluoroimidazo[1,2-a]pyridin-2-yl)-7-(piperazin-1-yl)-2H-chromen-2-one]	–	–	–	4.7	Kd ([7]; Table 3): 0.68 ± 0.1 µM; Kd ([7]; Table 4): 0.68 ± 0.1 µM
Cc1c(-c2ccc(Cl)cc2)c(=O)oc2cc(N3CCN(C)CC3)ccc12 [Compound C23, 3-(4-chlorophenyl)-4-methyl-7-(4-methylpiperazin-1-yl)-2H-chromen-2-one]	> 8	> 100	> 8	–	–
Cc1cn2cc(-c3c(OCCNC(=O)OC(C)(C)C)c4ccc(N5CCN[C@@H](C)C5)cc4oc3=O)nc2c(C)n1 [Compound C7]	> 8	–	–	–	–
CN1CCN(c2cc(F)c3cc(-c4cccc(Cl)c4)c(=O)oc3c2)CC1 [Compound C25, 3-(3-chlorophenyl)-5-fluoro-7-(4-methylpiperazin-1-yl)-2H-chromen-2-one]	> 8	18.7 ± 4	> 8	–	–
O=c1oc2cc(N3CCNCC3)ccc2cc1-c1ccc2ncccc2c1 [Compound C38]	> 8	–	–	1.8	–
CCOC(=O)C1=C(Nc2ccccc2)S/C(=C\c2ccc(OCCOCCn3cc(COCCOCCOCCOCCN4CCN(c5ccc6cc(-c7cn8cc(C)nc(C)c8n7)c(=O)oc6c5)CC4C)nn3)c(O)c2)C1=O (stereo in doubt) [Compound C9, (S,Z)-ethyl 5-(4-(2-(2-(4-(13-(4-(3-(6,8-dimethylimidazo[1,2-a]pyrazin-2-yl)-2-oxo-2H-chromen-7-yl)-2-methylpiperazin-1-yl)-2,5,8,11-tetraoxatridecyl)-1H-1,2,3-triazol-1-yl)ethoxy)ethoxy)-3-hydroxybenzylidene)-4-oxo-2-(phenylamino)-4,5-dihydrothiophene-3-carboxylate]	> 8	–	–	–	–
O=c1oc2cc(N3CCNCC3)ccc2cc1-c1cn2ccc(C(F)(F)F)cc2n1 [Compound C36, 7-(piperazin-1-yl)-3-(7-(trifluoromethyl)imidazo[1,2-a]pyridin-2-yl)-2H-chromen-2-one]	–	–	–	–	Kd ([7]; Table 3): 1.4 ± 0.4 µM; Kd ([7]; Table 4): 1.39 ± 0.4 µM
O=c1oc2cc(N3CCNCC3)ccc2cc1-c1cn2ccc(Cl)cc2n1 [Compound C32, 3-(7-chloroimidazo[1,2-a]pyridin-2-yl)-7-(piperazin-1-yl)-2H-chromen-2-one]	> 8	–	–	–	Kd ([7]; Table 3): 0.4 ± 0.04 µM; Kd ([7]; Table 4): 0.4 ± 0.4 µM
CN1CCN(c2ccc3cc(-c4cccc(Cl)c4)c(=O)oc3c2)CC1 [Compound C19, 3-(3-chlorophenyl)-7-(4-methylpiperazin-1-yl)-2H-chromen-2-one]	> 8	13.9 ± 1.1	> 8	> 30	CC50 [4]: > 30 µM; CC50 [5]: > 30 µM
COc1ccn2cc(-c3cc4ccc(N5CCNCC5)cc4oc3=O)nc2c1 [Compound C34, 3-(7-methoxyimidazo[1,2-a]pyridin-2-yl)-7-(piperazin-1-yl)-2H-chromen-2-one]	–	–	–	3.6	–
CN1CCN(c2cc(F)c3cc(-c4ccc(Cl)cc4)c(=O)oc3c2)CC1 [Compound C26, 3-(4-chlorophenyl)-5-fluoro-7-(4-methylpiperazin-1-yl)-2H-chromen-2-one]	> 8	9.9 ± 0.9	> 8	> 30	CC50 [4]: > 30 µM; CC50 [5]: > 30 µM
O=c1oc2cc(N3CCNCC3)ccc2cc1-c1ccc2ccccc2c1 [Compound C39]	> 8	–	–	7.9	–
Cc1c(-c2ccccc2Cl)c(=O)oc2cc(N3CCN(C)CC3)ccc12 [Compound C21, 3-(2-chlorophenyl)-4-methyl-7-(4-methylpiperazin-1-yl)-2H-chromen-2-one]	> 8	–	–	–	–
O=c1oc2cc(N3CCNCC3)ccc2cc1-c1cn2ccccc2n1 [Compound C29, 3-(imidazo[1,2-a]pyridin-2-yl)-7-(piperazin-1-yl)-2H-chromen-2-one]	> 8	2.8 ± 0.5	> 8	5.4	Kd ([7]; Table 3): 0.46 ± 0.08 µM; Kd ([7]; Table 4): 0.46 ± 0.8 µM; splicing modulation in cells [1]: without showing any observable splicing modulation
O=c1oc2cc(N3CCNCC3)ccc2cc1-c1cn2cc(Cl)ccc2n1 [Compound C33, 3-(6-chloroimidazo[1,2-a]pyridin-2-yl)-7-(piperazin-1-yl)-2H-chromen-2-one]	–	–	–	11.6	–
O=c1oc2cc(N3CCNCC3)ccc2cc1-c1cn2cc(C(F)(F)F)ccc2n1 [Compound C37, 7-(piperazin-1-yl)-3-(6-(trifluoromethyl)imidazo[1,2-a]pyridin-2-yl)-2H-chromen-2-one]	–	–	–	14.1	–
COc1cn2cc(-c3cc4ccc(N5CCNCC5)cc4oc3=O)nc2cn1 [Compound C28, 3-(6-methoxyimidazo[1,2-a]pyrazin-2-yl)-7-(piperazin-1-yl)-2H-chromen-2-one]	> 8	1.4 ± 0.2	> 8	–	Kd ([7]; Table 3): 0.47 ± 0.08 µM; Kd ([7]; Table 4): 0.47 ± 0.8 µM; splicing modulation in cells [1]: without showing any observable splicing modulation
CN1CCN(c2cc(F)c3cc(-c4ccccc4Cl)c(=O)oc3c2)CC1 [Compound C24, 3-(2-chlorophenyl)-5-fluoro-7-(4-methylpiperazin-1-yl)-2H-chromen-2-one]	> 8	–	–	–	–
Cc1cn2cc(-c3cc4ccc(N5CCN(CCOCCN=[N+]=[N-])[C@@H](C)C5)cc4oc3=O)nc2c(C)n1 [Compound C12, (S)-7-(4-(2-(2-azidoethoxy)ethyl)-3-methylpiperazin-1-yl)-3-(6,8-dimethylimidazo[1,2-a]pyrazin-2-yl)-2H-chromen-2-one]	0.18 ± 0.04	–	–	–	Kd ([7]; Table 3): 2.6 ± 0.8 µM; Kd ([7]; Table 4): 2.6 ± 0.8 µM
